The NIST ThermoML archive (doi:10.1016/j.tca.2011.02.027)

Experiment: molar heat capacity at constant pressure; xn = mol fraction of the nth substance listed
Details: 101.3 kPa, Liquid, Large sample (1 g) DSC

CCCCn1cc[n+](C)c1.[Br-] [1-butyl-3-methylimidazolium bromide] + O
molar heat capacity at constant pressure [J/K/mol]
Details	x1 = 0.1	x1 = 0.2	x1 = 0.3	x1 = 0.4	x1 = 0.5	x1 = 0.6	x1 = 1
303.2 K	102.2	123.4	144.5	165	186.7	209.6	–
308.2 K	102.5	124.1	145.4	166.1	188	211.2	–
313.2 K	103	124.9	146.3	167.1	189.2	212.9	–
318.2 K	103.5	125.8	147.2	168.1	190.7	214.5	–
323.2 K	104	126.6	148.2	169.2	191.8	216.2	–
328.2 K	104.5	127.5	149.2	170.4	193.3	217.9	–
333.2 K	104.8	128.3	150.1	171.6	194.6	219.5	–
338.2 K	105.4	129.2	151.1	172.9	196.1	221.3	–
343.2 K	105.8	130	152.1	173.9	197.3	223.1	–
348.2 K	106.3	131.1	153.1	175.2	198.6	224.9	–
353.2 K	106.8	131.9	154.1	176.2	200	226.5	334.8
358.2 K	–	–	–	–	–	–	338.1
363.2 K	–	–	–	–	–	–	341.1
368.2 K	–	–	–	–	–	–	344.6
373.2 K	–	–	–	–	–	–	347.5
378.2 K	–	–	–	–	–	–	350.6
383.2 K	–	–	–	–	–	–	354.1
388.2 K	–	–	–	–	–	–	356.7
393.2 K	–	–	–	–	–	–	359.9
398.2 K	–	–	–	–	–	–	363.4
403.2 K	–	–	–	–	–	–	366.4
